In patent EP1351977B1, “ANTIMICROBIAL PSEUDOPEPTIDES” (INSTITUT NATIONAL DE LA RECHERCHE AGRONOMIQUE (INRA), priority 2001, dated 2004):
Read-outs that look alike come from different tables or passages of the source. Ends that are not written are not given here.

What was measured:
Type in all cases: cell-based
Alternaria brassicae = experiment: Antifungal growth inhibition test in liquid medium
Botrytis cinerea sp = experiment: Antifungal growth inhibition test in liquid medium
Botrytis cinerea myc = experiment: Antifungal growth inhibition test in liquid medium
Cladosporium sp = experiment: Antifungal growth inhibition test in liquid medium
Cladosporium myc = experiment: Antifungal growth inhibition test in liquid medium
[1] = system: Helminthosporium teres sp; experiment: Antifungal growth inhibition test in liquid medium
Rhizoctonia solani myc = experiment: Antifungal growth inhibition test in liquid medium
Fusarium culmorum sp = experiment: Antifungal growth inhibition test in liquid medium
Excerpt: (§1) Les composés des pics 5, 7 et 8 de la figure 1 ont été testées vis-à-vis d'un ensemble de champignons phytopathogènes. Trois doses (10, 20, et 40 ppm) ont été employées pour chacun des composés.
(§2) L'activité antifongique a été détectée par un test d'inhibition de croissance en milieu liquide. Les spores des champignons à tester ont été mises en suspension dans un milieu de culture de type "Pomme de terre-Glucose". De préférence, on utilise 12 g de milieu Potato Dextrose Broth (Difco) pour 1 litre d'eau déminéralisée. Deux antibiotiques ont été rajoutés au milieu de culture: la tétracycline (concentration finale de 10 µg/ml) et la céfotaxime (100 µg/ml). On dépose 10 µl de chaque composé à tester dans des plaques de microtitration en présence de 90 µl de milieu de culture contenant les spores (à une concentration finale de 10^4 spores/ml). L'incubation a été réalisée en chambre humide à 30°C durant 48 heures. La croissance fongique a été observée au microscope photonique après 24 h et quantifiée après 48 heures par mesure de l'absorbance à 600 nm à l'aide d'un spectrophotomètre lecteur de plaque de microtitration. L'activité des composés contre les champignons phytopathogènes est exprimée par un pourcentage d'inhibition de croissance correspondant à 100 x (1 - absorbance avec produit/ absorbance du témoin sans produit), l'absorbance étant mesurée à 600 nm, 5 jours après le début de l'expérience.

Phytophthora myc = experiment: Antifungal growth inhibition test in liquid medium
Excerpt: as §1, §2

Piricularia oryzae sp = system: Piricularia oryzae sp
Septoria tritici sp = experiment: Antifungal growth inhibition test in liquid medium
Escherichia coli CIP548 = experiment: Bacterial growth inhibition test in Petri dish (solid medium), MIC; conditions: MIC extrapolated from inhibition diameter vs log10 concentration
Salmonella sp. = experiment: as above; conditions: MIC extrapolated from inhibition diameter vs log10 concentration
Experimental: Deux tests ont été utilisés pour mesurer l'activité antibactérienne des pseudopeptides, un test d'inhibition de la croissance bactérienne en microplaques (de 96 puits) en milieu liquide et un test d'inhibition de la croissance bactérienne en boîte de Pétri en milieu solide. • * Test en microplaques: La culture bactérienne à tester est prélevée en phase exponentielle, puis diluée au 1/500^ème dans du milieu liquide TSB frais. Chaque puits de la microplaque est rempli avec 100 µl de suspension bactérienne diluée. Dans le premier puits, 100 µl de l'échantillon de pseudopeptide à tester est ajouté à la suspension bactérienne, puis l'échantillon est dilué de 2 en 2 en transférant d'un puits à l'autre 100 µl de suspension. La lecture de la microplaque se fait en mesurant la densité optique à […] (DO600nm) après 24h d'incubation à 28°C ou 37°C selon les bactéries cibles. Connaissant la concentration en pseudopeptide de l'échantillon de départ, ce test permet de déterminer la valeur de la CMI (Concentration Minimale d'Inhibition de la croissance bactérienne). Dans ce test, la CMI correspond à la concentration de l'échantillon pour lequel la DO600nm est inférieure à celle du témoin de culture. • * Test en boîte de Pétri: La culture bactérienne à tester est prélevée en phase exponentielle, puis incorporée à 10 ml d'une gélose dite "sous-couche" (Agarose 1% poids/vol; NaCl 100 mM; Trypcase 0.03 % poids/vol; Tampon phosphate 10 mM pH7.4) à raison de 2.10^5 bactéries/ml. Le mélange est coulé dans une boîte de Pétri ordinaire. 9 puits d'environ 10 µl de volume sont formés dans la "sous-couche" à l'aide d'un embout de pipette stérile de 10 ml. Ces puits sont remplis avec une série de dilutions des pseudopeptides à tester (concentration initiale 500 µg/ml, et dilution de deux en deux jusqu'à 1,95 µg/ml). Après diffusion à température ambiante pendant 2h, une gélose dite "sur-couche" (Agarose 1% wt/vol; Trypcase 6 % wt/vol; Tampon phosphate 10 mM pH7.4) est ajoutée sur la sous-couche à raison de 5 à 10 ml. Après solidification, l'ensemble est mis à incuber pendant une nuit. Le diamètre d'inhibition de la culture bactérienne autour de chaque puits est mesuré en mm; il existe une relation linéaire entre le diamètre d'inhibition et le log10 de la concentration en pseudopeptide qui permet de déterminer par extrapolation la valeur de la CMI.
Une première série de résultats a été obtenue en utilisant le test en boîte de Pétri vis-à-vis de bactéries non pathogènes issues de la collection de Travaux pratiques du laboratoire de Pathologie Comparée de l'Université de Montpellier (France). Dans cette série, les pseudopeptides des pics 5, 7, 8,10 et 11 ont été testés (Tableau 4).

Klebsiella pneumoniae = experiment: as above; conditions: MIC extrapolated from inhibition diameter vs log10 concentration
[2] = system: Proteus vulgaris CIP58.60; experiment: as above; conditions: MIC extrapolated from inhibition diameter vs log10 concentration
Serratia entomophila = experiment: as above; conditions: MIC extrapolated from inhibition diameter vs log10 concentration
Staphylococcus aureus = experiment: as above; conditions: MIC extrapolated from inhibition diameter vs log10 concentration
[3] = system: Staphylococcus epidermidis; experiment: as above; conditions: MIC extrapolated from inhibition diameter vs log10 concentration
Streptococcus Gr. D = experiment: as above; conditions: MIC extrapolated from inhibition diameter vs log10 concentration
Pseudomonas fluorescens = experiment: as above; conditions: MIC extrapolated from inhibition diameter vs log10 concentration
Bacillus megaterium = experiment: as above; conditions: MIC extrapolated from inhibition diameter vs log10 concentration

With “Composé 5: pseudopeptide du pic n° 5 (HPLC, Figure 1) de Xenorhabdus nematophilus F1; Famille 1: Lys Lys Lys Lys Lys Gly; 1052 Da (KKKKKG; also: pseudopeptide modifications)” the “pourcentage d'inhibition de croissance” value (Alternaria brassicae; 10 ppm) was 82%, the “pourcentage d'inhibition de croissance” value (Alternaria brassicae; 20 ppm) was 84% and the “pourcentage d'inhibition de croissance” value (Alternaria brassicae; 40 ppm) was 83%. For the same substance, the “pourcentage d'inhibition de croissance” value (Botrytis cinerea sp; 10 ppm) was 38%, the “pourcentage d'inhibition de croissance” value (Botrytis cinerea sp; 20 ppm) was 95% and the “pourcentage d'inhibition de croissance” value (Botrytis cinerea sp; 40 ppm) was 95%. For the same substance, the “pourcentage d'inhibition de croissance” value (Botrytis cinerea myc; 10 ppm) was 21%, the “pourcentage d'inhibition de croissance” value (Botrytis cinerea myc; 20 ppm) was 34% and the “pourcentage d'inhibition de croissance” value (Botrytis cinerea myc; 40 ppm) was 60%. The “pourcentage d'inhibition de croissance” value (Cladosporium sp; 10 ppm) was 94%, the “pourcentage d'inhibition de croissance” value (Cladosporium sp; 20 ppm) was 94% and the “pourcentage d'inhibition de croissance” value (Cladosporium sp; 40 ppm) was 94%. For the same substance, the “pourcentage d'inhibition de croissance” value (Cladosporium myc; 10 ppm) was 89%, the “pourcentage d'inhibition de croissance” value (Cladosporium myc; 20 ppm) was 90% and the “pourcentage d'inhibition de croissance” value (Cladosporium myc; 40 ppm) was 89%. The “pourcentage d'inhibition de croissance” value ([1]; 10 ppm) was 70%, the “pourcentage d'inhibition de croissance” value ([1]; 20 ppm) was 91% and the “pourcentage d'inhibition de croissance” value ([1]; 40 ppm) was 95%. For the same substance, the “pourcentage d'inhibition de croissance” value (Rhizoctonia solani myc; 10 ppm) was 9.7%, the “pourcentage d'inhibition de croissance” value (Rhizoctonia solani myc; 20 ppm) was 85% and the “pourcentage d'inhibition de croissance” value (Rhizoctonia solani myc; 40 ppm) was 93%. For the same substance, the “pourcentage d'inhibition de croissance” value (Fusarium culmorum sp; 10 ppm) was 96%, the “pourcentage d'inhibition de croissance” value (Fusarium culmorum sp; 20 ppm) was 96% and the “pourcentage d'inhibition de croissance” value (Fusarium culmorum sp; 40 ppm) was 96%. The “pourcentage d'inhibition de croissance” value (Phytophthora myc; 10 ppm) was 79%, the “pourcentage d'inhibition de croissance” value (Phytophthora myc; 20 ppm) was 78% and the “pourcentage d'inhibition de croissance” value (Phytophthora myc; 40 ppm) was 77%. The “pourcentage d'inhibition de croissance” value (Piricularia oryzae sp; 10 ppm) was 18%, the “pourcentage d'inhibition de croissance” value (Piricularia oryzae sp; 20 ppm) was 22% and the “pourcentage d'inhibition de croissance” value (Piricularia oryzae sp; 40 ppm) was 45%. For the same substance, the “pourcentage d'inhibition de croissance” value (Septoria tritici sp; 10 ppm) was 88%, the “pourcentage d'inhibition de croissance” value (Septoria tritici sp; 20 ppm) was 88% and the “pourcentage d'inhibition de croissance” value (Septoria tritici sp; 40 ppm) was 85%. It also gave a CMI (Escherichia coli CIP548) of 15 µg/mL, a CMI (Salmonella sp.) of 30 µg/mL and a CMI (Klebsiella pneumoniae) of 30 µg/mL. The CMI [2] was 200 µg/mL, the CMI (Serratia entomophila) was 60 µg/mL and the CMI (Staphylococcus aureus) was 7,5 µg/ml. The CMI [3] was 30 µg/mL, the CMI (Streptococcus Gr. D) was 200 µg/mL and the CMI (Pseudomonas fluorescens) was 3 µg/mL. For the same substance, the CMI (Bacillus megaterium) was 0,75 µg/ml.
In the case of “Composé 7: pseudopeptide du pic n° 7 de Xenorhabdus nematophilus F1; Famille 2: Lys Lys Lys Lys Arg Gly; 1080 Da; isomère de masse du pic 11 (KKKKRG; also: pseudopeptide modifications)”, the “pourcentage d'inhibition de croissance” value (Alternaria brassicae; 10 ppm) is reported as 25%, the “pourcentage d'inhibition de croissance” value (Alternaria brassicae; 20 ppm) is reported as 47% and the “pourcentage d'inhibition de croissance” value (Alternaria brassicae; 40 ppm) is reported as 83%. For the same substance, the “pourcentage d'inhibition de croissance” value (Botrytis cinerea sp; 10 ppm) was 53%, the “pourcentage d'inhibition de croissance” value (Botrytis cinerea sp; 20 ppm) was 12% and the “pourcentage d'inhibition de croissance” value (Botrytis cinerea sp; 40 ppm) was 83%. The “pourcentage d'inhibition de croissance” value (Botrytis cinerea myc; 10 ppm) was 0%, the “pourcentage d'inhibition de croissance” value (Botrytis cinerea myc; 20 ppm) was 6% and the “pourcentage d'inhibition de croissance” value (Botrytis cinerea myc; 40 ppm) was 34%. For the same substance, the “pourcentage d'inhibition de croissance” value (Cladosporium sp; 10 ppm) was 74%, the “pourcentage d'inhibition de croissance” value (Cladosporium sp; 20 ppm) was 95% and the “pourcentage d'inhibition de croissance” value (Cladosporium sp; 40 ppm) was 95%. The “pourcentage d'inhibition de croissance” value (Cladosporium myc; 10 ppm) was 0%, the “pourcentage d'inhibition de croissance” value (Cladosporium myc; 20 ppm) was 40% and the “pourcentage d'inhibition de croissance” value (Cladosporium myc; 40 ppm) was 91%. For the same substance, the “pourcentage d'inhibition de croissance” value ([1]; 10 ppm) was 33%, the “pourcentage d'inhibition de croissance” value ([1]; 20 ppm) was 47% and the “pourcentage d'inhibition de croissance” value ([1]; 40 ppm) was 80%. For the same substance, the “pourcentage d'inhibition de croissance” value (Rhizoctonia solani myc; 10 ppm) was 6%, the “pourcentage d'inhibition de croissance” value (Rhizoctonia solani myc; 20 ppm) was 7% and the “pourcentage d'inhibition de croissance” value (Rhizoctonia solani myc; 40 ppm) was 64%. For the same substance, the “pourcentage d'inhibition de croissance” value (Fusarium culmorum sp; 10 ppm) was 66%, the “pourcentage d'inhibition de croissance” value (Fusarium culmorum sp; 20 ppm) was 97% and the “pourcentage d'inhibition de croissance” value (Fusarium culmorum sp; 40 ppm) was 97%. The “pourcentage d'inhibition de croissance” value (Phytophthora myc; 10 ppm) was 71%, the “pourcentage d'inhibition de croissance” value (Phytophthora myc; 20 ppm) was 81% and the “pourcentage d'inhibition de croissance” value (Phytophthora myc; 40 ppm) was 78%. For the same substance, the “pourcentage d'inhibition de croissance” value (Piricularia oryzae sp; 10 ppm) was 12%, the “pourcentage d'inhibition de croissance” value (Piricularia oryzae sp; 20 ppm) was 15% and the “pourcentage d'inhibition de croissance” value (Piricularia oryzae sp; 40 ppm) was 21%. The “pourcentage d'inhibition de croissance” value (Septoria tritici sp; 10 ppm) was 0%, the “pourcentage d'inhibition de croissance” value (Septoria tritici sp; 20 ppm) was 86% and the “pourcentage d'inhibition de croissance” value (Septoria tritici sp; 40 ppm) was 89%. It also gave a CMI (Escherichia coli CIP548) of 15 µg/mL, a CMI (Salmonella sp.) of 15 µg/mL and a CMI (Klebsiella pneumoniae) of 30 µg/mL. For the same substance, the CMI [2] was 100 µg/mL, the CMI (Serratia entomophila) was 60 µg/mL and the CMI (Staphylococcus aureus) was 15 µg/mL. For the same substance, the CMI (Pseudomonas fluorescens) was 1,5 µg/ml and the CMI (Bacillus megaterium) was 1,5 µg/ml.
For “Composé 10: pseudopeptide du pic n° 10 de Xenorhabdus nematophilus F1; Famille 2: Lys Lys Lys Lys Arg Gly; 1094 Da; structure en Figure 3 (KKKKRG; also: pseudopeptide modifications, not given here)”, the CMI (Escherichia coli CIP548) was 7,5 µg/ml, the CMI (Salmonella sp.) was 30 µg/mL and the CMI (Klebsiella pneumoniae) was 15 µg/mL. The CMI [2] was 200 µg/mL, the CMI (Serratia entomophila) was 15 µg/mL and the CMI (Staphylococcus aureus) was 7,5 µg/ml. For the same substance, the CMI (Pseudomonas fluorescens) was 1,5 µg/ml and the CMI (Bacillus megaterium) was 0,75 µg/ml.
“Composé 11: pseudopeptide du pic n° 11 de Xenorhabdus nematophilus F1; Famille 1: Lys Lys Lys Lys Lys Gly; 1080 Da; isomère de masse du pic 7 (KKKKKG; also: pseudopeptide modifications, not given here)” showed a CMI (Escherichia coli CIP548) of 15 µg/mL, a CMI (Salmonella sp.) of 15 µg/mL and a CMI (Klebsiella pneumoniae) of 30 µg/mL. For the same substance, the CMI [2] was 200 µg/mL, the CMI (Serratia entomophila) was 30 µg/mL and the CMI (Staphylococcus aureus) was 7,5 µg/ml. For the same substance, the CMI (Pseudomonas fluorescens) was 1,5 µg/ml and the CMI (Bacillus megaterium) was 0,75 µg/ml.
For Polymixine [reference compound], the CMI (Escherichia coli CIP548) was 0,25 µg/ml, the CMI (Salmonella sp.) was 0,5 µg/ml and the CMI [2] was 50 µg/mL. It also gave a CMI (Staphylococcus aureus) of 20 µg/mL and a CMI [3] of 20 µg/mL.
